# From PubChem BioAssay AID256 (DTP/NCI, 2004)
# Several values for one entry are separate records, joined by “and”; a condition that tells them apart may be missing. Equal values may be shown once. Inconclusive results and toxic doses are left out.
# System: CD2F1 mice, L1210 leukemia ip, survival T/C
# Assay: NCI In Vivo Anticancer Drug Screen. Data for tumor model L1210 Leukemia (intraperitoneal) in CD2F1 (CDF1) mice
# Details: higher = longer survival
# How it was run: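 Transplantable tumor in mice; compound-treated vs vehicle-treated groups. Read-out = treated/control ratio of the measured endpoint.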
# [1] = endpoint: mean survival time, dose: 50.0 mg/kg/injection, schedule: Q01DX009 (ip), vehicle: saline with Tween-80
# [2] = endpoint: mean survival time, dose: 100.0 mg/kg/injection, schedule: Q01DX009 (ip), vehicle: saline with Tween-80
# [3] = endpoint: mean survival time, dose: 200.0 mg/kg/injection, schedule: Q01DX009 (ip), vehicle: saline with Tween-80
# [4] = endpoint: mean survival time, dose: 400.0 mg/kg/injection, schedule: Q01DX009 (ip), vehicle: saline with Tween-80
# [5] = endpoint: mean survival time, dose: 100.0 mg/kg/injection, schedule: Q04DX003 (ip), vehicle: saline with Tween-80
# [6] = endpoint: mean survival time, dose: 200.0 mg/kg/injection, schedule: Q04DX003 (ip), vehicle: saline with Tween-80
# [7] = endpoint: mean survival time, dose: 400.0 mg/kg/injection, schedule: Q04DX003 (ip), vehicle: saline with Tween-80
# [8] = endpoint: mean survival time, dose: 100.0 mg/kg/injection, schedule: Q01DX001 (ip), vehicle: saline
# [9] = endpoint: mean survival time, dose: 25.0 mg/kg/injection, schedule: Q01DX009 (ip), vehicle: saline with Tween-80
# [10] = endpoint: mean survival time, dose: 100.0 mg/kg/injection, schedule: Q01DX009 (ip), vehicle: saline
# [11] = endpoint: mean survival time, dose: 200.0 mg/kg/injection, schedule: Q01DX009 (ip), vehicle: saline
# [12] = endpoint: mean survival time, dose: 12.5 mg/kg/injection, schedule: Q01DX009 (ip), vehicle: saline with Tween-80
# [13] = endpoint: mean survival time, dose: 400.0 mg/kg/injection, schedule: Q01DX001 (ip), vehicle: saline
smiles,measurement,setting,value
CSc1nc(N)nc2n[nH]nc12,T/C,"endpoint: mean survival time, dose: 100.0 mg/kg/injection, schedule: Q01DX001 (ip), vehicle: Klucel (hydroxypropylcellulose) (HPC)",97 % of control
same,T/C,"endpoint: mean survival time, dose: 200.0 mg/kg/injection, schedule: Q01DX001 (ip), vehicle: Klucel (hydroxypropylcellulose) (HPC)",105 % of control
same,T/C,"endpoint: mean survival time, dose: 400.0 mg/kg/injection, schedule: Q01DX001 (ip), vehicle: Klucel (hydroxypropylcellulose) (HPC)",103 % of control
CN(C)c1ccc(C(O)C(N)=O)cc1 (stereo not drawn),T/C,"endpoint: mean survival time, dose: 6.25 mg/kg/injection, schedule: Q01DX009 (ip), vehicle: saline",94 % of control
same,T/C,"endpoint: mean survival time, dose: 6.25 mg/kg/injection, schedule: Q04DX003 (ip), vehicle: saline",102 % of control
same,T/C,"endpoint: mean survival time, dose: 12.5 mg/kg/injection, schedule: Q01DX009 (ip), vehicle: saline",94 % of control
same,T/C,"endpoint: mean survival time, dose: 12.5 mg/kg/injection, schedule: Q04DX003 (ip), vehicle: saline",95 % of control
same,T/C,"endpoint: mean survival time, dose: 25.0 mg/kg/injection, schedule: Q01DX009 (ip), vehicle: saline",93 % of control
same,T/C,"endpoint: mean survival time, dose: 25.0 mg/kg/injection, schedule: Q04DX003 (ip), vehicle: saline",106 % of control
C/C=C/C(O)C1CCCCC1 (stereo not drawn),T/C,[1],103 % of control
same,T/C,[2],98 % of control
same,T/C,[3],107 % of control
O=C(O)/C=C/C(=O)NCc1ccccc1,T/C,[2],104 % of control
same,T/C,[3],94 % of control
same,T/C,[4],98 % of control
COc1ccc(/C=C2\SC(=O)NC2=O)cc1,T/C,[5],102 % of control
same,T/C,[6],100 % of control
CCCCc1c(C)[nH]c(=S)[nH]c1=O,T/C,[5],91 % of control
same,T/C,[6],96 % of control
CN(C)N=Nc1ccc(/C=C/C(=O)O)cc1,T/C,"endpoint: mean survival time, dose: 12.5 mg/kg/injection, schedule: Q01DX009 (ip), vehicle: Klucel (hydroxypropylcellulose) (HPC)",105 % of control
same,T/C,"endpoint: mean survival time, dose: 25.0 mg/kg/injection, schedule: Q01DX009 (ip), vehicle: Klucel (hydroxypropylcellulose) (HPC)",111 % of control
same,T/C,"endpoint: mean survival time, dose: 100.0 mg/kg/injection, schedule: Q01DX009 (ip), vehicle: Klucel (hydroxypropylcellulose) (HPC)",150 % of control
CC1(C)C=CC(=O)c2ccccc21,T/C,[5],94 % of control
same,T/C,[6],100 % of control
same,T/C,[7],101 % of control
O=C(/C=C/c1ccccn1)c1ccccc1,T/C,"endpoint: mean survival time, dose: 100.0 mg/kg/injection, schedule: Q04DX002 (ip), vehicle: Klucel (hydroxypropylcellulose) (HPC)",97 % of control
same,T/C,"endpoint: mean survival time, dose: 200.0 mg/kg/injection, schedule: Q04DX002 (ip), vehicle: Klucel (hydroxypropylcellulose) (HPC)",104 % of control
Cn1c(=O)c2[nH]c(-c3ccc(Cl)c(Cl)c3)nc2n(C)c1=O,T/C,"endpoint: mean survival time, dose: 12.5 mg/kg/injection, schedule: Q01DX005 (ip), vehicle: other",101 % of control
same,T/C,"endpoint: mean survival time, dose: 25.0 mg/kg/injection, schedule: Q01DX005 (ip), vehicle: other",92 % of control
same,T/C,"endpoint: mean survival time, dose: 50.0 mg/kg/injection, schedule: Q01DX005 (ip), vehicle: other",92 % of control
same,T/C,"endpoint: mean survival time, dose: 100.0 mg/kg/injection, schedule: Q01DX005 (ip), vehicle: other",87 % of control
same,T/C,"endpoint: mean survival time, dose: 200.0 mg/kg/injection, schedule: Q01DX005 (ip), vehicle: other",89 % of control
CCOC(=O)/C(C#N)=N\O,T/C,[8],102 % of control
O=C1C2CC(Cl)C(SSC3CC4C(=O)N(SC(Cl)(Cl)C(Cl)Cl)C(=O)C4CC3Cl)CC2C(=O)N1SC(Cl)(Cl)C(Cl)Cl (stereo not drawn),T/C,"endpoint: median survival time, dose: 6.25 mg/kg/injection, schedule: Q01DX009 (ip), vehicle: saline with Tween-80",101 % of control
same,T/C,"endpoint: median survival time, dose: 12.5 mg/kg/injection, schedule: Q01DX009 (ip), vehicle: saline with Tween-80",95 % of control
same,T/C,"endpoint: median survival time, dose: 25.0 mg/kg/injection, schedule: Q01DX009 (ip), vehicle: saline with Tween-80",98 % of control and 100 % of control
same,T/C,"endpoint: median survival time, dose: 50.0 mg/kg/injection, schedule: Q01DX009 (ip), vehicle: saline with Tween-80",101 % of control and 102 % of control
same,T/C,"endpoint: median survival time, dose: 100.0 mg/kg/injection, schedule: Q01DX009 (ip), vehicle: saline with Tween-80",100 % of control and 102 % of control
same,T/C,"endpoint: median survival time, dose: 200.0 mg/kg/injection, schedule: Q01DX009 (ip), vehicle: saline with Tween-80",102 % of control
same,T/C,"endpoint: median survival time, dose: 400.0 mg/kg/injection, schedule: Q01DX009 (ip), vehicle: saline with Tween-80",105 % of control
Nc1cccc(C(=O)O)c1C(=O)O,T/C,[9],93 % of control
O=Nc1ccc(NO)c2ccccc12,T/C,"endpoint: mean survival time, dose: 50.0 mg/kg/injection, schedule: Q01DX009 (ip), vehicle: saline",98 % of control
same,T/C,[10],102 % of control
same,T/C,[11],102 % of control
O=C1NC(O)c2ccccc2O1 (stereo not drawn),T/C,[12],101 % of control
same,T/C,"endpoint: mean survival time, dose: 12.5 mg/kg/injection, schedule: Q01DX009 (ip), vehicle: suspension in saline",95 % of control
same,T/C,[9],96 % of control
same,T/C,"endpoint: mean survival time, dose: 25.0 mg/kg/injection, schedule: Q01DX009 (ip), vehicle: suspension in saline",97 % of control
same,T/C,[1],98 % of control
same,T/C,"endpoint: mean survival time, dose: 50.0 mg/kg/injection, schedule: Q01DX009 (ip), vehicle: suspension in saline",104 % of control
same,T/C,[2],101 % of control and 108 % of control
same,T/C,"endpoint: mean survival time, dose: 100.0 mg/kg/injection, schedule: Q01DX009 (ip), vehicle: suspension in saline",101 % of control
same,T/C,[3],115 % of control and 106 % of control
same,T/C,"endpoint: mean survival time, dose: 200.0 mg/kg/injection, schedule: Q01DX009 (ip), vehicle: suspension in saline",119 % of control
same,T/C,"endpoint: mean survival time, dose: 400.0 mg/kg/injection, schedule: Q01DX009 (ip), vehicle: suspension in saline",95 % of control
COc1cc(/C=C2\C(=O)NC(=O)N(c3ccccc3)C2=O)cc(OC)c1OC,T/C,[5],100 % of control
same,T/C,[6],100 % of control
COC(=O)C(N)CSCc1ccccc1 (stereo not drawn),T/C,[8],100 % of control
same,T/C,[10],102 % of control
same,T/C,[11],97 % of control
same,T/C,[13],100 % of control
same,T/C,"endpoint: mean survival time, dose: 400.0 mg/kg/injection, schedule: Q01DX009 (ip), vehicle: saline",98 % of control
O=C1C(c2ccccc2)=C2C(=C1c1ccccc1)c1cccc3cccc2c13,T/C,[5],92 % of control
same,T/C,[6],90 % of control
same,T/C,[7],92 % of control
O=CN(CCNc1ccccc1)c1ccccc1,T/C,[5],96 % of control
same,T/C,[6],101 % of control
same,T/C,[7],95 % of control
Cc1c(Cl)c(C)c(Cl)c(O)c1Cl,T/C,[2],96 % of control
same,T/C,[3],100 % of control
same,T/C,[4],87 % of control
CC(=O)OC1(c2cc(C(F)(F)F)cc(C(F)(F)F)c2)C2CCC1CC2 (stereo not drawn),T/C,"endpoint: mean survival time, dose: 12.5 mg/kg/injection, schedule: Q04DX002 (ip), vehicle: saline with Tween-80",101 % of control
same,T/C,"endpoint: mean survival time, dose: 25.0 mg/kg/injection, schedule: Q04DX002 (ip), vehicle: saline with Tween-80",97 % of control
same,T/C,"endpoint: mean survival time, dose: 50.0 mg/kg/injection, schedule: Q04DX002 (ip), vehicle: saline with Tween-80",97 % of control
CCCCCCCCCCCCCCCc1ccc(C(=O)C[n+]2ccccc2)cc1,T/C,[12],117 % of control
same,T/C,"endpoint: mean survival time, dose: 12.5 mg/kg/injection, schedule: Q04DX003 (ip), vehicle: saline with Tween-80",103 % of control
same,T/C,"endpoint: mean survival time, dose: 25.0 mg/kg/injection, schedule: Q04DX003 (ip), vehicle: saline with Tween-80",106 % of control
same,T/C,"endpoint: mean survival time, dose: 50.0 mg/kg/injection, schedule: Q04DX003 (ip), vehicle: saline with Tween-80",111 % of control
N=Cc1c(O)n(-c2ccccc2)c(=O)n(-c2ccccc2)c1=O,T/C,[5],94 % of control
same,T/C,[6],94 % of control
same,T/C,[7],92 % of control
c1cc2c(c(CC3CO3)c1CC1CO1)OCCOCCOCCOCCO2 (stereo not drawn),T/C,"endpoint: median survival time, dose: 12.5 mg/kg/injection, schedule: Q01DX009 (ip), vehicle: saline + alcohol",112 % of control and 97 % of control and 98 % of control
same,T/C,"endpoint: median survival time, dose: 25.0 mg/kg/injection, schedule: Q01DX009 (ip), vehicle: saline + alcohol",123 % of control and 97 % of control and 98 % of control
same,T/C,"endpoint: median survival time, dose: 50.0 mg/kg/injection, schedule: Q01DX009 (ip), vehicle: saline + alcohol",102 % of control and 104 % of control
same,T/C,"endpoint: median survival time, dose: 100.0 mg/kg/injection, schedule: Q01DX009 (ip), vehicle: saline + alcohol",119 % of control and 93 % of control and 110 % of control
same,T/C,"endpoint: median survival time, dose: 200.0 mg/kg/injection, schedule: Q01DX009 (ip), vehicle: saline + alcohol",120 % of control
C=C(C)[C@@H]1CC[C@]2(CO)CC[C@]3(C)[C@H](CC[C@@H]4[C@@]5(C)CC[C@H](O)C(C)(C)[C@@H]5CC[C@]43C)[C@@H]12,T/C,[8],98 % of control
same,T/C,"endpoint: mean survival time, dose: 200.0 mg/kg/injection, schedule: Q01DX001 (ip), vehicle: saline",98 % of control
same,T/C,[13],98 % of control
CC(C)(C[NH-])C[NH-].[Cl][Pt+2]([Cl])([Cl])[Cl],T/C,"endpoint: median survival time, dose: 0.2 mg/kg/injection, schedule: Q04DX003 (ip), vehicle: water",116 % of control and 111 % of control
same,T/C,"endpoint: median survival time, dose: 0.4 mg/kg/injection, schedule: Q04DX003 (ip), vehicle: water",116 % of control and 124 % of control
same,T/C,"endpoint: median survival time, dose: 1.6 mg/kg/injection, schedule: Q04DX003 (ip), vehicle: water",151 % of control and 186 % of control and 228 % of control
same,T/C,"endpoint: median survival time, dose: 3.12 mg/kg/injection, schedule: Q04DX003 (ip), vehicle: distilled water + Tween-80",123 % of control
